Target: T1, Or22a (Or22a^1; ab3A-1 neurons) (Drosophila melanogaster, UniProt P81909)
T1 sequence (P81909 1-397): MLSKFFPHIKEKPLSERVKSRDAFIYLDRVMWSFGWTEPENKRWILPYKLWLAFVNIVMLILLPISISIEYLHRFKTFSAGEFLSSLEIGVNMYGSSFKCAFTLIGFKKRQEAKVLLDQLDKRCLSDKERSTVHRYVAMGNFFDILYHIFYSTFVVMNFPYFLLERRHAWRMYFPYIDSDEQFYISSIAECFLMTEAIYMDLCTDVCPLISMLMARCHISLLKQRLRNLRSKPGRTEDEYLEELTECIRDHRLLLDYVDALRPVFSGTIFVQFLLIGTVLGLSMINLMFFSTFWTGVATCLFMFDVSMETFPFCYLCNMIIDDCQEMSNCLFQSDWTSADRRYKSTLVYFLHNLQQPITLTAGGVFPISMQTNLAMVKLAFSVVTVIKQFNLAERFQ
T1 sequence (Q9VNB5 1-486 partner): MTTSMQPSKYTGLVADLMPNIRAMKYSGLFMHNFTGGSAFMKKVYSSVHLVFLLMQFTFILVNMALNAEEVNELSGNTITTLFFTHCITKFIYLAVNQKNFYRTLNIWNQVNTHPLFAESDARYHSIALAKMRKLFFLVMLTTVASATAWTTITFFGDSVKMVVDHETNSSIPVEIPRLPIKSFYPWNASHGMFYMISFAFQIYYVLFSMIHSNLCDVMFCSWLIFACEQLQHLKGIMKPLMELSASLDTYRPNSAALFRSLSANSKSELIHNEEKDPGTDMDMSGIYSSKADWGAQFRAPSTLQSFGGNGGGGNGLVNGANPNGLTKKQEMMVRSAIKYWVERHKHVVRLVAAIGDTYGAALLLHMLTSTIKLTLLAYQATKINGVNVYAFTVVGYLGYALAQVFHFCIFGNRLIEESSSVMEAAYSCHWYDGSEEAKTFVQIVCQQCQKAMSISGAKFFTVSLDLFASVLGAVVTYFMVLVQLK
Test: single-sensillum recording, transgene in empty ab3A neuron

SMILES | spikes/s (odorant at 10^−4 v/v in paraffin oil) | spikes/s (odorant at 10^−2 v/v in paraffin oil)
CCCCCC(=O)OC [methyl hexanoate] | flies expressing Or22ab have decreased responses to ethyl hexanoate, methyl hexanoate, and ethyl 2-methyl butanoate | 
CCOC(=O)C(C)CC (centres unmarked) [ethyl 2-methyl butanoate] |  | flies expressing Or22ab have decreased responses to ethyl hexanoate, methyl hexanoate, and ethyl 2-methyl butanoate

— paper PMC6502086 (Molecular Biology and Evolution, 2019)
